# Results taken from patent EP0821003B1, “PEPTIDES AND REMEDY FOR AUTOIMMUNE DISEASES COMPRISING THE SAME” (Aventis Pharma Ltd., priority 1995, dated 2003).
# Non-standard residues stand in square brackets, D forms with d. Residues, ends and D or L forms follow the SMILES beside them. No end group written: not given here.
# Columns and labels:
# [1] = test system: anti-OVA antibody production; experiment: Suppressive effect on anti-OVA antibody production in mice (ELISA of serum IgG); format: in vivo, Balb/c mice; parameters: Anti OVA Ig-G antibody titer (unit): dose or concentration left out as unconfirmed; conditions: for Anti-OVA antibody titer: in a similar manner to Example 2
# Protocol: Day 5 and day 3 prior to the antigen administration, Peptide (I) composed of 9 amino acid residues as indicated by Sequence ID No. 1 in the Sequence Listing of the present invention and a synthetic peptide 15 composed of 15 amino acid residues derived from clone 17.2 TcR, which peptide had been reported by Mohapatra et al. as described above, 100 g each, were dissolved in 200 of physiological saline and each solution thus obtained was subcutaneously administered to 9-week-old Balb/c mice. As a control, a non-administered group to which the same amount of physiological saline was administered was employed. In 200 I of physiological saline, 100 g of OVA (Sigma Chemical Co.) were dissolved, followed by subcutaneous administration. Blood was collected on day 21 after antigen administration and an antibody titer was measured by the method described below.
# OVA was diluted to 10 µg/ml with phosphate buffered saline (PBS) and 50 I portions of the solution were poured in a 96-well microplate. The coating operation was conducted overnight at […]. The microplate was then washed three times with a 0.05% Tween-20-containing PBS (T-PBS). 200 portions of 0.5% casein-containing tris buffered physiological saline (casein TBS) were poured in each well and the microplate was allowed to stand at room temperature for one hour. The microplate was then washed three times with T-PBS. After the serum of the blood collected from the mice was diluted to 1/200 with 0.5% casein TBS, 50 I portions of the diluted serum were poured in each well and the plate was allowed to stand for one hour (primary reaction).
# After the completion of the primary reaction, the microplate was washed three times with T-PBS. Fifty I portions of anti-mouse IgG-peroxidase-labeled antibody (TAGO Co.) diluted to 1/4000 with 0.5% casein TBS were poured in each well, followed by reaction at room temperature for one hour (secondary reaction). After the completion of the secondary reaction, the plate was washed three times again. Fifty I portions of a substrate liquid/chromogen (chromogen substrate: Behringwerke AG) were poured in each well, followed by reaction at room temperature for 30 minutes. After the completion of the reaction, 0.5N diluted sulfuric acid was added to terminate the reaction and an absorbance at 450 nm was measured by a colorimeter ("BEP-II", product of Behringwerke AG/Germany) with an absorbance at 650 nm as a control.
# In a similar manner to Example 2, the suppressive effects of Peptides (I), (VII) to (XIV) on the anti-OVA antibody production in mice were measured.
# [2] = test system: anti-KLH antibody production; experiment: Suppressive effect on anti-KLH antibody production in mice (ELISA of serum IgG); format: in vivo, Balb/c mice; conditions: for antibody production (anti-KLH) / Anti-KLH antibody titer (unit ± SD): Example 7; for Anti-KLH antibody titer (unit ± SD): in a similar manner to Example 3; for Anti-KLH antibody titer (unit ± SD) / Anti-KLH IgG antibody titer (unit ± SD): 8 mice per group; for Anti-KLH IgG antibody titer (unit ± SD): Example 3, 100 µg subcutaneously day 5 and day 3 prior to KLH, blood day 21 after antigen
# Protocol: Day 5 and day 3 prior to the antigen administration, 100 µg of each Peptide (I) to (VI) of the present invention composed of 9 amino acid residues indicated by Sequence ID No. 1 in the Sequence Listing were dissolved in 200 µl of physiological saline. The resulting solution was subcutaneously administered to 9-week-old Balb/c mice. As a control, a non-administered group to which the same amount of physiological saline was administered was employed. In 200 µl of physiological saline, 25 µg of KLH were dissolved as an antigen and the resulting solution was subcutaneously administered. The blood was collected on day 21 after antigen administration and an antibody titer was measured by the method which is described below.
# KLH was diluted to 10 µg/ml with a phosphate buffered physiological saline (PBS). Fifty µl portions of the resulting solution were poured into a 96-well microplate and the plate was allowed to stand at 4iC overnight. After the microplate was washed three times with 0.05% Tween-20-containing PBS (T-PBS), 200 µl portions of 0.5% casein tris-buffered physiological saline (casein TBS) were poured into wells, respectively. […] The microplate was washed three times with T-PBS and 50 µl portions of the mouse serum diluted to 1/200 with casein TBS were poured into the wells, followed by reaction for one hour (primary reaction).
# The resulting microplate was washed three times with T-PBS, to which 50 µl portions of an anti-mouse IgG-peroxidase-labeled antibody (TAGO Co.) diluted to 1/4000 with casein TBS were poured. The reaction was effected at room temperature for one hour (secondary reaction). After the completion of the secondary reaction, the plate was washed three times again. Fifty µl portions of a substrate liquid/chromogen (chromogen substrate: Behringwerke AG) were poured into wells, respectively, followed by reaction at room temperature for 30 minutes. After the completion of the reaction, 0.5N diluted sulfuric acid was added to terminate the reaction and an absorbance at 450 nm was measured by a colorimeter ("BEP-II", product of Behringwerke AG/Germany) with the absorbance at 650 nm as a control.
# In a similar manner to Example 3, suppressive effects of Peptides (I), (VII) to (XV) on anti-KLH antibody production in mice were studied.
# EAE model mice = experiment: Onset suppressive effect on EAE model mice (clinical score); format: in vivo, SJL mouse; parameters: key to average score ± SD: EAE onset score per Pettinelli et al. 1982 criteria; conditions: for average score ± SD: score 0-6
# Protocol: As an antigen, guinea pig spinal chord homogenate was employed. The guinea pig spinal chord homogenate was diluted with PBS to be 6.6 mg/ml, followed by the addition of the equivalent amount of Freund ? s complete adjuvant. The resulting mixture was formed into an emulsion by an ultrasonic sonicator. The resulting emulsion was administered to two areas under the lateral skin in a total amount of 300 µl. Day 5 and day 3 prior to antigen administration, and 5 days a week for 4 weeks after antigen administration, the solution of Peptide (I) dissolved in 100 µl physiological saline was subcutaneously administered to a 14-week old SJL mouse. Incidentally, in order to increase an onset ratio, […] of pertussis toxin (PTX) were intravenously administered as an enhancer on the day of antigen administration and two days after antigen administration. Observation of the onset was performed from day 14 to day 28 after primary antigen administration. The onset was scored based on the following standard criteria [Pettinelli, C. B., Fritz, D. E., and McFarlin, D. E. J. Immunl., 129, No. 3, 1024-1028 (1982)]. In Table 3, values of average score + standard deviation (SD) in each administration group on day 22, day 25 and day 28 after primary antigen administration are shown.
# [3] = Example 8, compared with the non-administered group and Peptide (I) administered group
# [4] = compared with the non-administered group and Peptide (I) administered group
# [5] = compared with Peptide (I) administered group
# [6] = Example 8, compared with Peptide (I) administered group
Compound,"Anti-OVA antibody titer ([1]; Example 8, 8 mice per group)",Anti-KLH antibody titer (unit ± SD) [2] [unit],Anti-KLH IgG antibody titer (unit ± SD) [2] [unit],"antibody production (anti-KLH) [2, 5]",other results
AKLTFGKG [Peptide (VII)],20.9 ± 21.4,25.9 ± 15.4,–,–,"antibody production (anti-OVA) [1, 3]: significantly suppressed; antibody production (anti-KLH) [2, 4]: significantly suppressed"
Ac-AKLTFGKGT [Peptide (III)],–,–,50.1 ± 25.8,–,–
AKLTFAKG [Peptide (X)],49.8 ± 28.4,26.5 ± 22.0,–,–,"antibody production (anti-KLH) [2, 4]: significantly suppressed"
AALTFGKG [Peptide (VIII)],65.3 ± 34.7,44.9 ± 18.1,–,not suppressed,–
CC(=O)N[C@H](C)C(=O)N[C@H](CCCCN)C(=O)N[C@H](CC(C)C)C(=O)N[C@@H](C(=O)N[C@H](Cc1ccccc1)C(=O)NCC(=O)N[C@H](CCCCN)C(=O)NCC(=O)N[C@@H](C(=O)O)[C@H](C)O)[C@H](C)O [Peptide (V)] (Ac-[dA][dK][dL][dT][dF]G[dK]G[dT]-OH),–,–,37.7 ± 17.7,–,–
AKLTFGKA [Peptide (XII)],50.9 ± 26.7,49.5 ± 40.1,–,not suppressed,–
AKLTAGKG [Peptide (XIV)],90.9 ± 89.5,59.9 ± 32.8,–,not suppressed,"antibody production (anti-OVA) [1, 6]: not suppressed"
AKLTFGKGT [Peptide (I)],23.8 ± 12.4,39.5 ± 16.1,78.7 ± 28.3,–,"antibody production (anti-OVA) ([1]; Example 2, compared with the non-administered group): significantly suppressed; Anti OVA Ig-G antibody titer (unit) ([1]; Example 2, subcutaneously day 5 and day 3 prior to OVA, blood day 21 after antigen, 8 mice per group, mean ± spread): 8.8 ± 10.8 unit; average score ± SD (EAE model mice; 1 µg/body subcutaneously, Day 22 after primary antigen administration): 1.6 ± 1.8; average score ± SD (EAE model mice; 1 µg/body subcutaneously, Day 25 after primary antigen administration): 0.9 ± 1.1; average score ± SD (EAE model mice; 1 µg/body subcutaneously, Day 28 after primary antigen administration): 1.8 ± 1.9; onset of EAE (EAE model mice; 5 µg/body group compared with the physiological saline group): suppressed on day 25 and day 28 with a significant difference of 5%; average score ± SD (EAE model mice; 5 µg/body subcutaneously, Day 22 after primary antigen administration): 0.4 ± 0.7; average score ± SD (EAE model mice; 5 µg/body subcutaneously, Day 25 after primary antigen administration): 1.0 ± 1.1; average score ± SD (EAE model mice; 5 µg/body subcutaneously, Day 28 after primary antigen administration): 0.7 ± 0.8; onset of EAE (EAE model mice; 25 µg/body group compared with the physiological saline group, from day 22): suppressed from day 22 with a significant difference of 5%; onset of EAE (EAE model mice; 25 µg/body group compared with the physiological saline group, from day 25): suppressed with a significant difference of 1%; average score ± SD (EAE model mice; 25 µg/body subcutaneously, Day 22 after primary antigen administration): 0.3 ± 0.4; average score ± SD (EAE model mice; 25 µg/body subcutaneously, Day 25 after primary antigen administration): 0.1 ± 0.3; average score ± SD (EAE model mice; 25 µg/body subcutaneously, Day 28 after primary antigen administration): 0.0 ± 0.0; onset of EAE (EAE model mice; administration of Peptide (I), overall statement): suppressed"
AKLAFGKG [Peptide (IX)],10.4 ± 6.3,33.9 ± 13.7,–,–,"antibody production (anti-OVA) [1, 3]: significantly suppressed; antibody production (anti-KLH) [2, 4]: significantly suppressed"
CC(=O)N[C@H](C)C(=O)N[C@H](CCCCN)C(=O)N[C@H](CC(C)C)C(=O)N[C@@H](C(=O)N[C@H](Cc1ccccc1)C(=O)NCC(=O)N[C@H](CCCCN)C(=O)NCC(=O)N[C@@H](C(N)=O)[C@H](C)O)[C@H](C)O [Peptide (VI)] (Ac-[dA][dK][dL][dT][dF]G[dK]G[dT]-NH2),–,–,29.5 ± 19.5,–,–
AKATFGKG [Peptide (XIII)],193.5 ± 155.9,68.9 ± 25.1,–,not suppressed,"antibody production (anti-OVA) [1, 6]: not suppressed"
KLTFGKG [Peptide (XV)],–,86.4 ± 27.8,–,not suppressed,–
AKLTFGAG [Peptide (XI)],15.3 ± 14.3,19.9 ± 15.9,–,–,"antibody production (anti-OVA) [1, 3]: significantly suppressed; antibody production (anti-KLH) [2, 4]: significantly suppressed"
CC(C)C[C@@H](NC(=O)[C@@H](CCCCN)NC(=O)[C@@H](C)N)C(=O)N[C@@H](C(=O)N[C@H](Cc1ccccc1)C(=O)NCC(=O)N[C@H](CCCCN)C(=O)NCC(=O)N[C@@H](C(=O)O)[C@H](C)O)[C@H](C)O [Peptide (II)] (H-[dA][dK][dL][dT][dF]G[dK]G[dT]-OH),–,–,48.4 ± 13.1,–,–
